Reference: ChEMBL document CHEMBL3351920, “Biased and unbiased strategies to identify biologically active small molecules” (Bioorg Med Chem, 2014)
Each block holds one compound with its values, some of them ahead of it.

Experiments:
[1] = Inhibition of CUG-RNA/MBLN1 (unknown origin) interaction
Acetylcholinesterase = Acetylcholinesterase (Homo sapiens, UniProt P22303); assay: Inhibition of acetylcholine esterase (unknown origin)
[2] = biological target: Cyclin-dependent kinase 1 (Homo sapiens, UniProt P06493); assay: Inhibition of CDK1 (unknown origin)
[3] = biological target: RAC-alpha serine/threonine-protein kinase (Homo sapiens, UniProt P31749); assay: Inhibition of Akt1 (unknown origin)
[4] = biological target: T1, Glutathione S-transferase Mu 1 (Mus musculus, UniProt P10649); assay: Inhibition of mouse GSTM1-1
T1 sequence (P10649 whole entry): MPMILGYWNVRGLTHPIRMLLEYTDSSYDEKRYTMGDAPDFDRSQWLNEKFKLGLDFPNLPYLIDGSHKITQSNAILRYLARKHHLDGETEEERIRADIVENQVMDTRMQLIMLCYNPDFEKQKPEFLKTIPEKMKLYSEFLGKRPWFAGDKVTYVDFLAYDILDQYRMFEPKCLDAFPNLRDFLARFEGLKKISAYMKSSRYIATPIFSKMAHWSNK

[5] = Binding affinity to H-telo G-quadruplex DNA (unknown origin)
[6] = Binding affinity to double strand DNA (unknown origin)
[7] = Binding affinity to G-quadruplex RNA (unknown origin)
Bcl-2-like protein 10 = biological target: T2, Bcl-2-like protein 10 (Homo sapiens, UniProt Q9HD36); assay: Binding affinity to Bcl-b (unknown origin)
T2 sequence (Q9HD36 whole entry): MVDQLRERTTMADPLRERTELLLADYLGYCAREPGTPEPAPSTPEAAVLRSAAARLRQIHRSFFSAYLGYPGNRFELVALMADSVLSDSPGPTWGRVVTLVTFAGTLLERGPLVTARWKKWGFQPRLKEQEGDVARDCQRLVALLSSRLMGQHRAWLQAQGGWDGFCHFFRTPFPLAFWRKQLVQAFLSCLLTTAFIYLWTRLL

Beta-casein = biological target: T3, Beta-casein (Bos taurus, UniProt P02666); assay: Binding affinity to bovine beta-casein A1
T3 sequence (P02666 whole entry): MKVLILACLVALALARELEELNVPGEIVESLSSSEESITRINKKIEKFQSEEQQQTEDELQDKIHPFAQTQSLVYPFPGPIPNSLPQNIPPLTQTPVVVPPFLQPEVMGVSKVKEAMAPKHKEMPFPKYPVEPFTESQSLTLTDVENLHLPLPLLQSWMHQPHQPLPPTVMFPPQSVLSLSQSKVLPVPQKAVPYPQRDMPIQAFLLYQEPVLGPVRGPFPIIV

Sequence of Acetylcholinesterase (P22303 whole entry): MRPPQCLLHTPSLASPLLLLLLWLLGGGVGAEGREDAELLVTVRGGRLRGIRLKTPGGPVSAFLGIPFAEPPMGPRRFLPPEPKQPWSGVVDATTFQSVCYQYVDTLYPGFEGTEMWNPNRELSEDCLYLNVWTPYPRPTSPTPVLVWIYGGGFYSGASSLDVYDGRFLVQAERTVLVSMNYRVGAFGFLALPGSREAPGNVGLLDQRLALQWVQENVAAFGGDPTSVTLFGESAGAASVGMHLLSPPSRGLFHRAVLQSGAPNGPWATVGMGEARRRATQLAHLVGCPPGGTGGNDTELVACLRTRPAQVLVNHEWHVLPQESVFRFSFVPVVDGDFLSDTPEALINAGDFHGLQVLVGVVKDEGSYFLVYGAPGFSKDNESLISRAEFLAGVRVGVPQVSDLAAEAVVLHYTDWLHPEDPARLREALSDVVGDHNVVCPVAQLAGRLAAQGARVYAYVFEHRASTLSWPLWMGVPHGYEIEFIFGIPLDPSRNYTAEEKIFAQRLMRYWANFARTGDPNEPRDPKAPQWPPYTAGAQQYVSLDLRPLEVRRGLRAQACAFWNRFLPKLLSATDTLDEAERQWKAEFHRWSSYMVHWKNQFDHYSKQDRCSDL
Sequence of RAC-alpha serine/threonine-protein kinase (P31749 whole entry): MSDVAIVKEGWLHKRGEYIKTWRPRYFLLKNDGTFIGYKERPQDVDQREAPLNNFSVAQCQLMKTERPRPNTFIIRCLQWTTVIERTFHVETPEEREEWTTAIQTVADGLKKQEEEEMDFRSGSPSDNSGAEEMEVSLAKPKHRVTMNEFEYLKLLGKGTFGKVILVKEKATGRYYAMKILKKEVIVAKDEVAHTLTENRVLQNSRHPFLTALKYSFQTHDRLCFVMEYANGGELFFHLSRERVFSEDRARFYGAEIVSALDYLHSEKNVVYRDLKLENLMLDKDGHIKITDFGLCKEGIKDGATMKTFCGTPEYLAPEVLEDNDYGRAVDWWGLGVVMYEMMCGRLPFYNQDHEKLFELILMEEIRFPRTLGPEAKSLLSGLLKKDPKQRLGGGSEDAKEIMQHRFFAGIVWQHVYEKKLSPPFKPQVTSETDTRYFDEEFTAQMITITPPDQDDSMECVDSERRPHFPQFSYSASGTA
Sequence of Cyclin-dependent kinase 1 (P06493 whole entry): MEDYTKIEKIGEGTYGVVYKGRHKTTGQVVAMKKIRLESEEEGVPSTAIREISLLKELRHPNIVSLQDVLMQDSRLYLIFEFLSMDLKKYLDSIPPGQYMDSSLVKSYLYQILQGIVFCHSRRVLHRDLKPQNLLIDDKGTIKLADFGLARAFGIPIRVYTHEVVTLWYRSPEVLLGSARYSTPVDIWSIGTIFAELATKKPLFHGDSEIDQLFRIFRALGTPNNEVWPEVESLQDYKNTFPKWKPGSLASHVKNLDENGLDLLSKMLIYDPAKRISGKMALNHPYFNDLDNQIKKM

- Ki [1]: 3600 nM
SMILES: CCc1nc2ccccc2cc1C(=O)N1CCC[C@H]1C(=O)N[C@H](CSSC[C@@H](NC(=O)[C@@H]1CCCN1C(=O)c1cc2ccccc2nc1CC)C(=O)N[C@@H](CCCCN)C(=O)NCCCN)C(=O)N[C@@H](CCCCN)C(=O)NCCCN

- deltaTm [5]: 30 K
- deltaTm [6]: 0 K
SMILES: NCCOc1cc(NC(=O)c2cc(OCc3cn([C@H]4O[C@H](CO)[C@@H](O)[C@H](O)[C@H]4O)nn3)cc(C(=O)Nc3cc(OCCN)c4ccccc4n3)n2)nc2ccccc12

- deltaTm [7]: 20.7 K
SMILES: NCCOc1cc(NC(=O)c2cc(OCc3cn(CCC(=O)O)nn3)cc(C(=O)Nc3cc(OCCN)c4ccccc4n3)n2)nc2ccccc12

- Ki (Bcl-2-like protein 10): > 1 nM
- Ki (Beta-casein): > 1 nM
SMILES: CN(C)CC[C@H](CSc1ccccc1)Nc1ccc(S(=O)(=O)NC(=O)c2ccc(N3CCN(Cc4ccccc4-c4ccc(Cl)cc4)CC3)cc2)cc1[N+](=O)[O-] [ABT 737]

- deltaTm [5]: 28 K
- deltaTm [6]: 0.1 K
SMILES: O=C(Nc1cc(OCCN2CCCC2)c2ccccc2n1)c1cc(OCc2cn([C@H]3O[C@H](CO)[C@@H](O)[C@H](O)[C@H]3O)nn2)cc(C(=O)Nc2cc(OCCN3CCCC3)c3ccccc3n2)n1

Continued, compound first:

SMILES: O=C(C[n+]1ccccc1)N/N=C/c1ccc(/C=N/NC(=O)C[n+]2ccccc2)cc1
- IC50 (Acetylcholinesterase): 2.3 nM

SMILES: c1ccc2[nH]c(-c3cc[nH]n3)nc2c1
- IC50 [2]: 28000 nM

SMILES: CC[C@H](C)[C@H](NC(=O)[C@H](CCCNC(=N)N)NC(=O)[C@H](CCC(=O)O)NC(=O)[C@H](Cc1cnc[nH]1)NC(=O)[C@H](CCCNC(=N)N)NC(=O)C(CCCCCCCCn1cc(CCCC(=O)NC(CCCCCCCCn2cc(C[C@H](NC(C)=O)C(=O)N[C@@H](Cc3ccccc3)C(=O)N[C@@H](Cc3c[nH]c4ccccc34)C(=O)N[C@@H](Cc3ccccc3)C(=O)N[C@@H](CC(C)C)C(=O)N[C@@H](CCCNC(=N)N)C(=O)NCC(N)=O)nn2)C(=O)N[C@H](C(=O)N[C@@H](Cc2ccccc2)C(=O)N[C@@H](Cc2ccc(O)cc2)C(=O)N[C@@H](CCCNC(=N)N)C(=O)N[C@@H](CC(C)C)C(=O)NCC(=O)N[C@@H](Cc2ccc(O)cc2)C(=O)NCCNC(=O)CCCC[C@H]2SC[C@H]3NC(=O)N[C@H]32)C(C)C)nn1)NC(C)=O)C(N)=O (stereo partly drawn)
- Kd [3]: 200 nM

SMILES: C[C@H](NC(=O)c1cccc(C(=O)N[C@@H](C)C(=O)N/N=C/c2ccc(SC[C@H](NC(=O)CC[C@H](N)C(=O)O)C(=O)NCC(=O)O)c([N+](=O)[O-])c2)c1)C(=O)N/N=C/c1ccc(SC[C@H](NC(=O)CC[C@H](N)C(=O)O)C(=O)NCC(=O)O)c([N+](=O)[O-])c1
- IC50 [4]: 50 nM

SMILES: C[N+](C)(C)CCCCCCCCCC[N+](C)(C)C [DECAMETHONIUM BROMIDE]
- IC50 (Acetylcholinesterase): 1000 nM
